Data from patent US11944627B2, “Methods for treating hematological malignancies and Ewing's sarcoma” (KURA ONCOLOGY, INC., priority 2017, dated 2024).

What follows are compounds tested on LXFE 2734 cells (assay: Serial bleed FACS analysis and survival study in LXFE 2734 mouse model). Settings: LXFE 2734 model, compared to vehicle; FIG. 11.
Description: Human leukemia cells were detected by FACS biweekly starting from week 2 post-cell inoculation.

Q: CC(C)(C)c1cc(NC(=O)Nc2ccc(-c3cn4c(n3)sc3cc(OCCN5CCOCC5)ccc34)cc2)no1 [quizartinib] was tested. Which overall survival did it give?
A: prolonged survival

Same assay, conditions: LXFE 2734 model, quizartinib ~3 mg/kg qd

Q: With CC(C)(C)c1cc(NC(=O)Nc2ccc(-c3cn4c(n3)sc3cc(OCCN5CCOCC5)ccc34)cc2)no1 [quizartinib] as the compound, how does the surviving animals read?
A: no quizartinib treated animals surviving after 77 days

Same assay, conditions: LXFE 2734 model; Compound A ~150 mg/kg p.o. qd, quizartinib ~3 mg/kg qd; FIG. 10

Q: Which “leukemic progression (CD45+/CD33+ blasts, FACS)” value does the source give for CC(C)(C)c1cc(NC(=O)Nc2ccc(-c3cn4c(n3)sc3cc(OCCN5CCOCC5)ccc34)cc2)no1 [quizartinib] here?
A: evidence of leukemia relapse

Each compound was assayed on MLL-AF9 BMC (assay: Cell proliferation assay, MLL-AF9 bone marrow cells). Settings: Mus musculus.
Format: cell-based, murine
Description: The ability of a compound of the present disclosure to inhibit the growth of selected cells was tested using a cell viability assay, such as the Promega CellTiter-Glo® Luminescent Cell Viability Assay (Promega Technical Bulletin, 2015, “CellTiter-Glo® Luminescent Cell Viability Assay”: 1-15, herein incorporated by reference in its entirety) or MTT cell proliferation assay (ATCC® 30-1010K) or cell counting. Compounds of the present disclosure can be tested in both acute myeloid leukemia cell lines or Ewing's sarcoma cell lines and control cell lines without the genetic abnormality or mutation being investigated (e.g., K562, REH, U937, KG-1, and/or HL-60). Selected cells can include, but are not limited to, cells such as human leukemia cell, acute myeloid leukemia cell, Ewing's sarcoma cell (e.g., SK-NEP-1, EW5, EW8, TC-71, TC-106, CHLA258, CHLA-9, CHLA-10, SK-ES-1, Hs 822.T, A-673, A-4573, Hs 863.T, RD-ES, CHLA-25, CHLA-32, CHLA-99, COG-E-352, TC-32, SK-N-MC), VCaP, LNCaP, 22RV1, DU145, LNCaP-AR, MV4;11, KOPN-8, ML-2, MOLM-13, RS4;11, SEM, bone marrow cells (BMCs), myeloblast cell, lymphoblast cell, NUP98 gene fusion cell (e.g., NUP98-PHF23 cell), NUP98-PHF23 (NP23) myeloblast cell (e.g., 961C), NUP98-PHF23 (NP23) lymphoblast cell (e.g., 748T, 106A), cell with an NPM1 mutation (e.g., OCI-AML3), cell without an NPM1 mutation, cell with a DNMT3A mutation (e.g., OCI-AML3, OCI-AML2, SET2), cell without a DNMT3A mutation, cell with a FLT3 mutation, cell without a FLT3 mutation, cell with an IDH1 mutation, cell without an IDH1 mutation, cell with an IDH2 mutation, cell without an IDH2 mutation, cell with a mixed lineage leukemia (MLL) gene amplification (e.g., UoC-M1, 2L1), cell without a mixed lineage leukemia (MLL) gene amplification, MLL-AF9, MLL-AF4, MLL-ENL, HM-2, E2A-HLF, REH, U937, HL-60, NB4, K562, KG-1, and OCI-AML2 cells. Cells were plated at relevant concentrations, for example about 1×10^5-2×10^5 cells per well in a 96-well plate. A compound of the present disclosure was added at a concentration up to about 2 μM with seven or eight, 2-fold serial dilutions for each compound. Cells were incubated at 37° C. for a period of time, for example, 72 hours, then cells in the control wells were counted. Media was changed to restore viable cell numbers to the original concentration, and compounds were re-supplied. Proliferation was measured about 72 hours later or about 96 hours later using Promega CellTiter-Glo® reagents or MTT reagents, as per kit instructions.

Q: With CNc1nc(NC2CCN(Cc3ccc4c(cc(C#N)n4C[C@H](C)N4CCC(C)(O)CC4)c3C)CC2)c2cc(CC(F)(F)F)sc2n1 [Compound I-207] as the compound, how does the GI50 read?
A: < 10 nM

Q: How did the GI50 turn out when CNS(=O)(=O)C1CCN([C@@H](C)Cn2c(C#N)cc3c(C)c(CN4CCC(Nc5nc(OC)nc6sc(CC(F)(F)F)cc56)CC4)ccc32)CC1 [Compound I-214] was run?
A: < 10 nM

Q: C[C@@H](Cn1c(C#N)cc2cc(CN3CCC(Nc4nc(N)nc5sc(CC(F)(F)F)cc45)CC3)c(O)cc21)N1CCN(S(C)(=O)=O)CC1 [Compound I-172] was tested. Which GI50 did it give?
A: < 10 nM

Q: Which GI50 does the source give for Cc1c(CN2CCC(Nc3ncnc4sc(CC(F)(F)F)cc34)CC2)ccc2c1cc(C#N)n2C[C@@H](C)N1CCN(S(C)(=O)=O)CC1 [Compound I-9] here?
A: 250 to 1000 nM

Q: With CNS(=O)(=O)N1CCN([C@@H](C)Cn2c(C#N)cc3cc(CN4CCC(Nc5nc(N)nc6sc(CC(F)(F)F)cc56)CC4)c(O)cc32)CC1 [Compound I-177] as the compound, how does the GI50 read?
A: < 10 nM

Q: Cc1nc(NC2CCN(Cc3ccc4c(cc(C#N)n4C[C@H](C)N4CCN(S(C)(=O)=O)CC4)c3C)CC2)c2cc(CC(F)(F)F)sc2n1 [Compound I-138] was tested. Which GI50 did it give?
A: 10 to 50 nM

Q: For CNc1nc(NC2CCN(Cc3ccc4c(cc(C#N)n4C[C@H](C)N4CCC(C)(C#N)CC4)c3C)CC2)c2cc(CC(F)(F)F)sc2n1 [Compound I-199], which GI50 is on record?
A: < 10 nM

Q: How did the GI50 turn out when Cc1c(CN2CCC(Nc3nc(N)nc4sc(CC(F)(F)F)cc34)CC2)ccc2c1cc(C#N)n2C[C@H](C)N1CCN(CC(N)=O)CC1 [Compound I-175] was run?
A: 10 to 50 nM

Q: For CNS(=O)(=O)N1CCN([C@@H](C)Cn2c(C#N)cc3c(C)c(CN4CCC(Nc5nc(C)nc6sc(CC(F)(F)F)cc56)CC4)ccc32)CC1 [Compound I-139], which GI50 is on record?
A: 10 to 50 nM

Q: COc1nc(NC2CCN(Cc3ccc4c(cc(C#N)n4C[C@H](C)N4CCN(S(C)(=O)=O)CC4)c3C)CC2)c2cc(CC(F)(F)F)sc2n1 [Compound I-183] was tested. Which GI50 did it give?
A: < 10 nM

Q: Cc1c(CN2CCC(Nc3nc(N)nc4sc(CC(F)(F)F)cc34)CC2)ccc2c1cc(C#N)n2C[C@H](C)N1CCN(CC(=O)N(C)C)CC1 [Compound I-181] was tested. Which GI50 did it give?
A: 10 to 50 nM

Q: CNS(=O)(=O)N1CCN([C@@H](C)Cn2c(C#N)cc3c(C)c(CN4CCC(Nc5nc(N)nc6sc(CC(F)(F)F)cc56)CC4)ccc32)CC1 [Compound I-132] was tested. Which GI50 did it give?
A: < 10 nM

Q: How did the GI50 turn out when CNC(=O)CN1CCN([C@@H](C)Cn2c(C#N)cc3c(C)c(CN4CCC(Nc5nc(N)nc6sc(CC(F)(F)F)cc56)CC4)ccc32)CC1 [Compound I-176] was run?
A: 10 to 50 nM

Q: Cc1c(CN2CCC(Nc3ncnc4sc(CC(F)(F)F)cc34)CC2)ccc2c1cc(C#N)n2CC(C)N1CCN(S(C)(=O)=O)C(C(N)=O)C1 (stereo not shown) [Compound I-80] was tested. Which GI50 did it give?
A: 10 to 50 nM

Q: How did the GI50 turn out when CNc1nc(NC2CCN(Cc3ccc4c(cc(C#N)n4C[C@H](C)N4CCN(S(C)(=O)=O)CC4)c3C)CC2)c2cc(CC(F)(F)F)sc2n1 [Compound I-151] was run?
A: < 10 nM

Q: Cc1c(CN2CCC(Nc3ncnc4sc(CC(F)(F)F)cc34)CC2)ccc2c1cc(C#N)n2C[C@H](C)N1CCN(S(C)(=O)=O)[C@H](C(N)=O)C1 [Compound I-163] was tested. Which GI50 did it give?
A: < 10 nM

Q: Which GI50 does the source give for CNc1nc(NC2CCN(Cc3ccc4c(cc(C#N)n4C[C@H](C)N4CCS(=O)(=O)CC4)c3C)CC2)c2cc(CC(F)(F)F)sc2n1 [Compound I-203] here?
A: < 10 nM

Q: Which GI50 does the source give for Cc1c(CN2CCC(Nc3nc(N)nc4sc(CC(F)(F)F)cc34)CC2)ccc2c1cc(C#N)n2C[C@H](C)N1CCN(S(C)(=O)=O)CC1 [Compound I-135] here?
A: < 10 nM

Q: CCc1nc(NC2CCN(Cc3ccc4c(cc(C#N)n4C[C@H](C)N4CCN(S(C)(=O)=O)CC4)c3C)CC2)c2cc(CC(F)(F)F)sc2n1 [Compound I-171] was tested. Which GI50 did it give?
A: 10 to 50 nM

Q: How did the GI50 turn out when CNS(=O)(=O)N1CCN([C@@H](C)Cn2c(C#N)cc3c(C)c(CN4CCC(Nc5nc(OC)nc6sc(CC(F)(F)F)cc56)CC4)ccc32)CC1 [Compound I-205] was run?
A: < 10 nM

Q: How did the GI50 turn out when Cc1c(CN2CCC(Nc3ncnc4sc(CC(F)(F)F)cc34)CC2)ccc2c1cc(C#N)n2C[C@H](C)N1CCN(S(C)(=O)=O)CC1 [Compound I-10] was run?
A: 10 to 50 nM

Q: How did the GI50 turn out when CCNc1nc(NC2CCN(Cc3ccc4c(cc(C#N)n4C[C@H](C)N4CCN(S(C)(=O)=O)CC4)c3C)CC2)c2cc(CC(F)(F)F)sc2n1 [Compound I-174] was run?
A: 10 to 50 nM

Q: For CNC(=O)C1CN([C@@H](C)Cn2c(C#N)cc3c(C)c(CN4CCC(Nc5nc(NC)nc6sc(CC(F)(F)F)cc56)CC4)ccc32)CCO1 (stereo partly shown) [Compound I-217], which GI50 is on record?
A: 10 to 50 nM

Q: With Cc1nc(NC2CCN(Cc3ccc4c(cc(C#N)n4C[C@H](C)N4CCC(S(C)(=O)=O)CC4)c3C)CC2)c2cc(CC(F)(F)F)sc2n1 [Compound I-165] as the compound, how does the GI50 read?
A: < 10 nM

The compounds below were run against T1, menin-MLL interaction (Homo sapiens, UniProt O00255) (assay: Fluorescence polarization (FP) competition assay). Settings: read-out: Menin MLL 4-43 IC50.
T1 sequence (O00255 1-610): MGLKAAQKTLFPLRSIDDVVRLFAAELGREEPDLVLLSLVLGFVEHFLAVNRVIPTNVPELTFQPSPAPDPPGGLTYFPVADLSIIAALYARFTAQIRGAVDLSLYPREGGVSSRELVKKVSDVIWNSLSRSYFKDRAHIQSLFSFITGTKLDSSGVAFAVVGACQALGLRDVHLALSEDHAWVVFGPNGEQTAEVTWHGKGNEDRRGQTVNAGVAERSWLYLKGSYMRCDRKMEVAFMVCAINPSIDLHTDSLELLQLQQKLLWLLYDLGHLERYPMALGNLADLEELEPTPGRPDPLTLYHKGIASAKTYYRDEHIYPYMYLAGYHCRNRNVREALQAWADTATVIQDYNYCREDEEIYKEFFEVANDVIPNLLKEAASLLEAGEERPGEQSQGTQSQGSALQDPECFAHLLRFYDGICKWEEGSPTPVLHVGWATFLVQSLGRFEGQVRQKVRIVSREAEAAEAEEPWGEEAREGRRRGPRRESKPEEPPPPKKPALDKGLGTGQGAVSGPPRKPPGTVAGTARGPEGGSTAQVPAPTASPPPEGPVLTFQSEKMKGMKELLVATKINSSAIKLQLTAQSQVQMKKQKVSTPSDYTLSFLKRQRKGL
Format: binding

Q: How did the IC50 turn out when Cc1c(CN2CCC(Nc3ncnc4sc(CC(F)(F)F)cc34)CC2)ccc2c1cc(C#N)n2CCN1CCC2(CC1)CCN(S(C)(=O)=O)C2 [Compound I-52] was run?
A: 250 to 1000 nM

What follows are compounds tested on AM7577 cells (assay: Serial bleed FACS analysis and survival study in AM7577 mouse model (Example 30)). Settings: Compound A ~100 or ~150 mg/kg, quizartinib ~3 mg/kg, combination ~100 + ~2 mg/kg, p.o. qd, FIG. 8.

Q: Which “leukemic progression (CD45+/CD38+ blasts, serial bleed FACS)” value does the source give for CC(C)(C)c1cc(NC(=O)Nc2ccc(-c3cn4c(n3)sc3cc(OCCN5CCOCC5)ccc34)cc2)no1 [quizartinib] here?
A: evidence of leukemia breakout after 63 days

Same assay, conditions: compared to vehicle, FIG. 9A

Q: How did the overall survival turn out when CC(C)(C)c1cc(NC(=O)Nc2ccc(-c3cn4c(n3)sc3cc(OCCN5CCOCC5)ccc34)cc2)no1 [quizartinib] was run?
A: prolonged survival

Same assay, conditions: quizartinib only treatment

Q: CC(C)(C)c1cc(NC(=O)Nc2ccc(-c3cn4c(n3)sc3cc(OCCN5CCOCC5)ccc34)cc2)no1 [quizartinib] was tested. Which surviving animals did it give?
A: no surviving animals after 84 days
